Tests used:
[1] = molecular target: high-affinity DFP binding site; design: species or system rat
acetylcholinesterase = acetylcholinesterase (Rattus norvegicus, UniProt P37136); test: biochemical
[2] = tested on: rats having a lesion of the entorhinal cortex; conditions: rat, in vivo, ip
young adult rats = conditions: rat, in vivo; cited from earlier work

acetylcholinesterase, sequence (P37136 32-614): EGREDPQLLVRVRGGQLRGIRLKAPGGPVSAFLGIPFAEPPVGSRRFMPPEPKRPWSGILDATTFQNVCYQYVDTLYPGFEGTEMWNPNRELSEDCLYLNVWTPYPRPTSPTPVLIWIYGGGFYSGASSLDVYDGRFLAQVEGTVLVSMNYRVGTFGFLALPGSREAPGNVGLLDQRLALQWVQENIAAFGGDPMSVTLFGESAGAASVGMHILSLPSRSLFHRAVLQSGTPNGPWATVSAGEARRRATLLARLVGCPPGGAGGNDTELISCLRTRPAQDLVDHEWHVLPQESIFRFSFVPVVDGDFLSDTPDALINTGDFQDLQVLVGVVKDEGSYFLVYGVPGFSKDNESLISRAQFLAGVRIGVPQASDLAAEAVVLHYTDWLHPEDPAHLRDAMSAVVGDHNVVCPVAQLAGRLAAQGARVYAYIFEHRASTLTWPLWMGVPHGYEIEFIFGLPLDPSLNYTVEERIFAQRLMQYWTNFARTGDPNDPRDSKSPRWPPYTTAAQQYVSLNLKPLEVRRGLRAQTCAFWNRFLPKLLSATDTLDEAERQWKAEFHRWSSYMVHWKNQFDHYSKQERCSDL

CCCc1c(CC)c(=O)on1C(=O)N1CCCC1 [Example 1, 4-Ethyl-3-propyl-2-(1-pyrrolidinylcarbonyl)-5(2H)-isoxazolone]
IC50 ([1]; read-out: IC50, inhibition of binding of [3H]DFP to the high-affinity binding site): 4.8 nM
Ki (acetylcholinesterase): > 10000 nM
selectivity (DFP binding site vs acetylcholinesterase) (acetylcholinesterase): > 2000
antagonism of the learning weakness induced by lesion of the entorhinal cortex [2]: not capable of antagonizing the learning weakness
learning of the platform position [2]: sped up learning of the platform position considerably
performance level on the second day of training [2]: same performance level as the vehicle-treated animals after 5 days of training

Nc1c2c(nc3ccccc13)CCCC2 [tacrine]
improvement of cognitive learning ability (young adult rats): no improvement

COP(=O)(OC)OC=C(Cl)Cl [dichlorvos, reference compound]
binding/affinity to the high-affinity DFP binding site ([3H]DFP competition in vitro) [1]: binds
